{"source": "paper PMC10035370", "about": "“Targeting Tumor Angiogenesis with the Selective VEGFR-3 Inhibitor EVT801 in Combination with Cancer Immunotherapy” (Cancer Research Communications, 2022)", "molecules": {"B1": {"name": "VEGF-D: VEGFR-3 ligand (protein, UniProt O43915 89-205, looked up)", "Vascular endothelial growth …": "FAATFYDIETLKVIDEEWQRTQCSPRETCVEVASELGKSTNTFFKPPCVNVFRCGGCCNEESLICMNTSTSYISKQLFEISVPLTSVPELVPVKVANHTGCKCLPTAPRHPYSIIRR"}, "B2": {"name": "VEGF-C: VEGFR-3 ligand (protein, UniProt P49767 112-227, looked up)", "Vascular endothelial growth …": "AHYNTEILKSIDNEWRKTQCMPREVCIDVGKEFGVATNTFFKPPCVSVYRCGGCCNSEGLQCMNTSTSYLSKTLFEITVPLSQGPKPVTISFANHTSCRCMSKLDVYRQVHSIIRR"}}, "key": {"[1]": {"test_system": "DEN-induced liver tumor", "assay": "N-diethylnitrosamine-induced hepatocarcinoma mouse model", "format": "in vivo, mice", "settings": "30 mg/kg daily for 2 months", "description": "After weighing, 38 male C3/H mice received a 10 mg/kg dose of N-diethylnitrosamine (DEN) intraperitoneally, whereas a group of 5 animals was kept without DEN injection as control group. After 12 months, mice that received DEN injection were randomized by weight in two groups of each 19 animals. The mice were dosed daily orally for 2 months either with EVT801 or vehicle. On the day of termination, mice treated with EVT801 received a last dose of 30 mg/kg to take blood and tumor samples for compound concentration determination. After incision of the peritoneal cavity, blood was taken from the vena cava. Following excision and weighing of the liver, the number of tumors per liver was counted. The tumor burden was calculated as the sum of individual tumor volumes for each mouse. No blood sampling was performed on control and vehicle groups. Plasma and tumor samples were stored at −20°C until analysis. Concentration of EVT801 was determined by LC/MS-MS."}, "[2]": {"assay": "Blood pressure in telemetered rat model of hypertension", "format": "in vivo", "settings": "single oral administration of 10, 30 or 100 mg/kg", "description": "Supplementary Figure 8. EVT801 and sorafenib show opposing effects on blood pressure in rats. (A) Monitoring of the blood pressure over 24 h after single oral administration of 100 mg/kg EVT801 or 500 mg/kg of EVT801, compared to animals treated with vehicle. (B) Monitoring of the blood pressure over 24 h after single oral administration of 10 mg/kg sorafenib, 30 mg/kg sorafenib or 100 mg/kg of sorafenib, compared to animals treated with vehicle."}, "[3]": {"test_system": "NCI-H1703 cells", "assay": "NCI-H1703 viability (ATP reduction)", "format": "cell-based", "settings": "Homo sapiens, in vitro", "description": "NCI-H1703 were seeded in 96-well plates coated with 0.3 % gelatin (5 x 10^3 cells per well) and were incubated in RPMI 0.1 % FCS with VEGF-C (300 ng/mL) or VEGF-D (300 ng/mL) in the absence or presence of increasing doses of EVT801. After 5 days, viable cells were quantified with the cell Titer-glo luminescent cell viability assay (Promega) as previously described (1)."}, "[4]": {"test_system": "NCI-H1703 tumor xenografts", "assay": "NCI-H1703 subcutaneous xenograft tumor mouse model", "format": "in vivo, mice", "settings": "30 mg/kg twice per day", "description": "A total number of 40 homozygous NOD.CB17 Prkdc^scid/NCrHsd mice were used for the xenograft tumor model. On the day of implantation, NCI-H1703 cells were harvested and suspended at a concentration of 1 × 10^8 cells per mL in an equal mix of Cultrex:RPMI without supplements. A volume of 100 μL was injected into the right hind flank of each animal. Tumor volumes were monitored until mean tumor volume reached 150 mm^3. Then, mice were stratified into four treatment groups of each 10 mice and orally dosed twice per day with either EVT801 30 mg/kg and EVT801 vehicle [Soluplus (BASF)/water/hydroxypropylcellulose SL (Nisso America)], or 30 mk/kg pazopanib and pazopanib vehicle (0.5% Hydroxypropyl methylcellulose trimellitate (HPMCT) + 0.1% Tween-80). A period of 8 hours was observed between the first and second daily dose."}, "[5]": {"test_system": "RT-HAM-001 tumors", "assay": "RT-001-HAM subcutaneous patient-derived xenograft tumor mouse model", "format": "in vivo, mice", "settings": "30 mg/kg twice per day, 7-day treatment", "description": "Patient-derived tumors of the same passage were transplanted subcutaneously outbred athymic (nu/nu) female HSD mice. When tumor volume reached 726 to 1,437 mm^3, 4 donor mice were sacrificed by cervical dislocation, and tumors were aseptically excised and dissected. After removing necrotic areas, tumor fragments of approximately 20 mm^3 were transferred to culture medium before grafting. A total of 108 mice were anesthetized with 100 mg/kg ketamine hydrochloride (Virbac) and 10 mg/kg xylazine (Bayer). Then, a tumor fragment was placed in the subcutaneous tissue of an incision at the level of the interscapular region as described previously ([30]). All mice from the same experiment were implanted on the same day. A total of 54 mice with RT-001-HAM established growing tumor (P6.0.0/0) between 62.5 and 196 mm^3 were allocated according to tumor volume, ensuring homogenous median and mean tumor volume in each treatment arm. Treatments with 5 mL/kg vehicle, 30 mg/kg EVT801, or 30 mg/kg pazopanib started 15 days after tumor implantation and continued twice per day until termination 7 days later. Tumor volumes were measured via a caliper three times a week during the treatment period. All animals were weighed at the same time as tumor size measurement. Plasma and fresh tumor samples were collected at different timepoints after final dose at day 7 from all mice."}, "[6]": {"test_system": "hLMVEC", "assay": "Growth factor-induced hLMVEC proliferation", "format": "cell-based, human", "settings": "stimulation by the ligand", "description": "hLMVEC were seeded in white cell culture-treated flat and clear bottom multi-well plates and incubated at 37 °C overnight, before compounds were added. After incubation for 72 h at 37 °C, plates were equilibrated to ambient temperature for 1 h, and CellTiterGlo reagent (Promega) was added. After approximately 1h, luminescence was measured using a luminometer. Curves were fitted via sigmoidal dose response curves, and IC50 values were determined."}}}
{"molecule": "CNC(=O)c1cc(Oc2ccc(NC(=O)Nc3ccc(Cl)c(C(F)(F)F)c3)cc2)ccn1", "note": "[sorafenib, reference compound]", "values": [{"measurement": "T/C ratio, tumor growth", "setting": "[1]", "value": 32, "unit": "%"}, {"measurement": "liver weight", "setting": "[1]", "value": "reduced liver weight"}, {"measurement": "effect on blood pressure", "setting": "[2]", "value": "showed the opposite effect"}]}
{"molecule": "Cc1ccc(Nc2nccc(N(C)c3ccc4c(C)n(C)nc4c3)n2)cc1S(N)(=O)=O", "note": "[pazopanib, reference compound]", "values": [{"measurement": "IC50", "setting": "[3]", "value": 90, "unit": "nM"}, {"measurement": "CD31 IHC, tumor vessels", "setting": "[4]", "value": "decreased the number of vessels while increasing the proportion of larger ones"}, {"measurement": "decrease of tumor weight compared with vehicle", "setting": "[4]; endpoint", "value": 56, "unit": "%"}, {"measurement": "T/C ratio, tumor growth", "setting": "[4]; oral, vs corresponding vehicle", "value": 53, "unit": "%"}, {"measurement": "T/C ratio, tumor volume", "setting": "[5]", "value": 77, "unit": "%"}, {"measurement": "size of necrotic areas in tumors", "setting": "[5]", "value": "remained unaffected"}, {"measurement": "hypoxic areas (CAIX) in tumors", "setting": "[5]; not statistically significant", "value": "showed opposing effects"}]}
{"molecule": "B1", "values": [{"measurement": "increase in hLMVEC proliferation", "setting": "[6]", "value": 34, "unit": "%"}]}
{"molecule": "B2", "values": [{"measurement": "increase in hLMVEC proliferation", "setting": "[6]", "value": 50, "unit": "%"}]}
